Values quoted from earlier work as cited in US20250262166A1, “NANOPARTICLES COMPRISING ENZALUTAMIDE” (priority 2019, published 2025).

solubility in water: insoluble in water
SMILES: CNC(=O)c1ccc(N2C(=S)N(c3ccc(C#N)c(C(F)(F)F)c3)C(=O)C2(C)C)cc1F [Enzalutamide]
